Source: PubChem BioAssay (NCI)
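Tested at 5 concentrations; 48 h exposure; 96-well plates; endpoints linearly interpolated, else capped at highest concentration. Here, GI50 denotes the concentration required for 50% inhibition of growth. At the TGI there is no net growth.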

What was measured:
Assay in all cases: NCI anticancer screen, dose series, 48 h; in the data active means GI50 below about 0.43 µM; inactive means the rest
SNB-19 CNS = test system: SNB-19 CNS
IGROV1 ovarian = test system: IGROV1 ovarian
U251 CNS = test system: U251 CNS
M14 melanoma = test system: M14 melanoma
T-47D breast = test system: T-47D breast
ACHN renal = test system: ACHN renal
HCT-15 colon = test system: HCT-15 colon
MOLT-4 leukemia = test system: MOLT-4 leukemia
OVCAR-8 ovarian = test system: OVCAR-8 ovarian
MDA-MB-435 = test system: MDA-MB-435
MDA-MB-468 breast = test system: MDA-MB-468 breast
A549 NSCLC = test system: A549 NSCLC
NCI-H460 lung = test system: NCI-H460 lung
OVCAR-4 ovarian = test system: OVCAR-4 ovarian
SR leukemia = test system: SR leukemia
COLO 205 colon = test system: COLO 205 colon
HL-60(TB) leukemia = test system: HL-60(TB) leukemia
RXF 393 renal = test system: RXF 393 renal
MCF7 breast = test system: MCF7 breast
OVCAR-5 ovarian = test system: OVCAR-5 ovarian
SK-OV-3 ovarian = test system: SK-OV-3 ovarian
UACC-62 melanoma = test system: UACC-62 melanoma
UACC-257 melanoma = test system: UACC-257 melanoma
NCI-H226 lung = test system: NCI-H226 lung
OVCAR-3 ovarian = test system: OVCAR-3 ovarian
SK-MEL-28 melanoma = test system: SK-MEL-28 melanoma
SF-295 CNS = test system: SF-295 CNS
SK-MEL-5 melanoma = test system: SK-MEL-5 melanoma
SW-620 colon = test system: SW-620 colon
HCC-2998 colon = test system: HCC-2998 colon
BT-549 breast = test system: BT-549 breast
HCT-116 colon = test system: HCT-116 colon
SF-539 CNS = test system: SF-539 CNS
HT29 colon = test system: HT29 colon
NCI-H522 lung = test system: NCI-H522 lung
TK-10 renal = test system: TK-10 renal
PC-3 prostate = test system: PC-3 prostate
EKVX NSCLC = test system: EKVX NSCLC
NCI-H23 lung = test system: NCI-H23 lung
K-562 leukemia = test system: K-562 leukemia
786-0 renal = test system: 786-0 renal
SN12C renal = test system: SN12C renal
MALME-3M melanoma = test system: MALME-3M melanoma
HOP-62 NSCLC = test system: HOP-62 NSCLC
CAKI-1 renal = test system: CAKI-1 renal
SF-268 CNS = test system: SF-268 CNS
HOP-92 NSCLC = test system: HOP-92 NSCLC
KM12 colon = test system: KM12 colon
A498 renal = test system: A498 renal
RPMI-8226 leukemia = test system: RPMI-8226 leukemia
CCRF-CEM leukemia = test system: CCRF-CEM leukemia
DU-145 prostate = test system: DU-145 prostate
LOX IMVI melanoma = test system: LOX IMVI melanoma
NCI/ADR-RES ovarian = test system: NCI/ADR-RES ovarian
HS 578T breast = test system: HS 578T breast

CC[C@]12C=CCN3CC[C@@]4(c5ccc(OC)cc5N(C)[C@H]4[C@@](O)(C(=O)OC)[C@@H]1OC(=O)CCC[P+](c1ccc(F)cc1)(c1ccc(F)cc1)c1ccc(F)cc1)[C@@H]32
12.3 µM: TGI (UACC-62 melanoma)
15.7 µM: TGI (SK-MEL-5 melanoma)
30.7 µM: TGI (RXF 393 renal)
40.7 µM: TGI (OVCAR-3 ovarian)
20.6 µM: TGI (KM12 colon)
18.2 µM: TGI (IGROV1 ovarian)
7.82 µM: TGI (HL-60(TB) leukemia)
9.33 µM: TGI (RPMI-8226 leukemia)
11.6 µM: TGI (SK-MEL-28 melanoma)
30 µM: TGI (HCC-2998 colon)
18.5 µM: TGI (MDA-MB-435)
17.3 µM: TGI (SR leukemia)
> 48.5 µM: TGI (SNB-19 CNS) | TGI (U251 CNS) | TGI (T-47D breast) | TGI (ACHN renal) | TGI (HCT-15 colon) | TGI (MOLT-4 leukemia) | TGI (OVCAR-8 ovarian) | TGI (A549 NSCLC) | TGI (NCI-H460 lung) | TGI (OVCAR-4 ovarian) | TGI (OVCAR-5 ovarian) | TGI (SK-OV-3 ovarian) | TGI (NCI-H226 lung) | TGI (SF-295 CNS) | TGI (SW-620 colon) | TGI (HCT-116 colon) | TGI (SF-539 CNS) | TGI (HT29 colon) | TGI (TK-10 renal) | TGI (PC-3 prostate) | TGI (EKVX NSCLC) | TGI (NCI-H23 lung) | TGI (K-562 leukemia) | TGI (786-0 renal) | TGI (SN12C renal) | TGI (HOP-62 NSCLC) | TGI (CAKI-1 renal) | TGI (SF-268 CNS) | TGI (A498 renal) | TGI (DU-145 prostate) | TGI (LOX IMVI melanoma) | TGI (NCI/ADR-RES ovarian)
26.5 µM: TGI (BT-549 breast)
30.8 µM: TGI (MCF7 breast)
37.4 µM: TGI (CCRF-CEM leukemia)
14 µM: TGI (MALME-3M melanoma)
19.9 µM: TGI (HOP-92 NSCLC)
12 µM: TGI (UACC-257 melanoma)
11.1 µM: TGI (COLO 205 colon)
28.9 µM: TGI (M14 melanoma)
42.4 µM: TGI (HS 578T breast)
inactive: GI50 (SNB-19 CNS) 11.4 µM | GI50 (IGROV1 ovarian) 7.09 µM | GI50 (U251 CNS) 9.36 µM | GI50 (M14 melanoma) 9.1 µM | GI50 (T-47D breast) 10.5 µM | GI50 (ACHN renal) > 48.5 µM | GI50 (HCT-15 colon) > 48.5 µM | GI50 (MOLT-4 leukemia) 9.69 µM | GI50 (OVCAR-8 ovarian) 18.4 µM | GI50 (MDA-MB-435) 8.14 µM | GI50 (MDA-MB-468 breast) 1.5 µM | GI50 (A549 NSCLC) 21.2 µM | GI50 (NCI-H460 lung) 17 µM | GI50 (OVCAR-4 ovarian) 16.2 µM | GI50 (SR leukemia) 7.45 µM | GI50 (COLO 205 colon) 4.98 µM | GI50 (HL-60(TB) leukemia) 1.77 µM | GI50 (RXF 393 renal) 8.46 µM | GI50 (MCF7 breast) 8.26 µM | GI50 (OVCAR-5 ovarian) 20.8 µM | GI50 (SK-OV-3 ovarian) 15.8 µM | GI50 (UACC-62 melanoma) 6.05 µM | GI50 (UACC-257 melanoma) 4.67 µM | GI50 (NCI-H226 lung) 24.2 µM | GI50 (OVCAR-3 ovarian) 6.47 µM | GI50 (SK-MEL-28 melanoma) 5.34 µM | GI50 (SF-295 CNS) > 48.5 µM | GI50 (SK-MEL-5 melanoma) 8.26 µM | GI50 (SW-620 colon) 18.3 µM | GI50 (HCC-2998 colon) 9.53 µM | GI50 (BT-549 breast) 8.13 µM | GI50 (HCT-116 colon) 14.8 µM | GI50 (SF-539 CNS) 16.8 µM | GI50 (HT29 colon) 12.5 µM | GI50 (NCI-H522 lung) 3.88 µM | GI50 (TK-10 renal) 22.2 µM | GI50 (PC-3 prostate) 12.6 µM | GI50 (EKVX NSCLC) 19.4 µM | GI50 (NCI-H23 lung) 15.8 µM | GI50 (K-562 leukemia) 9.83 µM | GI50 (786-0 renal) > 48.5 µM | GI50 (SN12C renal) 14.8 µM | GI50 (MALME-3M melanoma) 6.85 µM | GI50 (HOP-62 NSCLC) 20.5 µM | GI50 (CAKI-1 renal) > 48.5 µM | GI50 (SF-268 CNS) 15 µM | GI50 (HOP-92 NSCLC) 5.44 µM | GI50 (KM12 colon) 8.96 µM | GI50 (A498 renal) > 48.5 µM | GI50 (RPMI-8226 leukemia) 2.05 µM | GI50 (CCRF-CEM leukemia) 12.7 µM | GI50 (DU-145 prostate) 23.7 µM | GI50 (LOX IMVI melanoma) 16.6 µM | GI50 (NCI/ADR-RES ovarian) > 48.5 µM | GI50 (HS 578T breast) 11.8 µM
32 µM: TGI (NCI-H522 lung)
6.3 µM: TGI (MDA-MB-468 breast)
